Source: patent US20170165236A1, “SELECTIVE SPHINGOSINE 1 PHOSPHATE RECEPTOR MODULATORS AND COMBINATION THERAPY THEREWITH” (Celgene International II Sàrl, priority 2013, published 2017)

Experiments:
S1P1/EDG1 = S1P1/EDG1 (Homo sapiens, UniProt P21453); test: S1P1 CRE-bla CHOK1 reporter assay, inhibition of Forskolin induced cAMP; assay type: cell-based; conditions: CRE-bla CHOK1 cells, 2 μM Forskolin; read-out: S1P1 ACTIVITY (agonist activity)
Procedure: Generation of S1P1-Mediated Inhibition of cAMP Reporter Assay
S1P1/pcDNA3.1 was transfected into the CRE-bla CHO K1 (Invitrogen) cell line, and stable single cell clones were selected using standard techniques.
S1P1 CRE-Bla CHOK1 Reporter Assay—Characterization of S1P1 Agonists
Cells were seeded into 384-well black wall/clear bottom plates at 10^4 cells/well/19.5 μl assay media (DMEM-phenol free, 0.5% charcoal/dextran stripped serum, 2 mM glutamine, 0.1 mM NEAA, 1 mM Na-Pyruvate, 25 mM Hepes) and incubated for 18 hrs at 37° C. in 5% CO2. Dose response curves (10-point) were generated in 10 mM Hepes, 0.1% Pluronic F127, in the presence of Forskolin. Cells were treated with 0.5 μl compound in the presence of 2 μM Forskolin for 4 hrs at 37° C. The FRET-based β-lactamase fluorescent substrate (LiveBLAzer™-FRET B/G Loading Kit CC4-AM; Invitrogen) was prepared according to manufacturer's directions, and incubated with cells for 2 hrs at room temperature. […] Data was analyzed by non-linear regression to determine the EC50 for inhibition of Forskolin induced cAMP.

S1P1 R120A/E121A = S1P1 R120A/E121A (Homo sapiens, UniProt P21453, E121A/R120A); test: Phosphorylated-ERK1/2 In Cell Western, S1P1 mutant R120A/E121A; assay type: cell-based
Sequence of S1P1 R120A/E121A (P21453 whole entry R120A/E121A): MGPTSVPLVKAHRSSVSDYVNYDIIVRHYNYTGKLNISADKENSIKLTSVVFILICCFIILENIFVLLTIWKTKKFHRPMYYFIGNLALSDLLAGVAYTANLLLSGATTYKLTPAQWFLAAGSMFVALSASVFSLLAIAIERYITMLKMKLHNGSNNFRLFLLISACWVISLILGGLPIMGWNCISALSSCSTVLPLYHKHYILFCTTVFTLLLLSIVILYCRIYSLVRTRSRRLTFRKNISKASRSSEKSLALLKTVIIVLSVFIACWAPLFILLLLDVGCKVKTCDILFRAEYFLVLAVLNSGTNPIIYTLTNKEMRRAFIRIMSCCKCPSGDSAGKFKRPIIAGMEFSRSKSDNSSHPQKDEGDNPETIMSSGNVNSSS
Procedure: (§1) Quick-change mutagenesis with PfuTurbo DNA polymerase (Stratagene) was conducted using S1P1/pcDNA3.1 (Missouri S&T cDNA Resource Centre) as the template. Primers were as follows: […]
(§2) PCR conditions were 15 cycles with the following parameters: 95° C. 30 sec, 58° C. 30 sec, 68° C. for 60 sec. All constructs were sequence verified.
(§3) CHOK1 cells were transfected using Fugene (Roche). Stably expressing mixed pools were selected with 2 mg/ml G418. Expression of functional S1P1/EDG1 receptor was confirmed by cell surface FACS with a S1P1 antibody (R&D Systems, clone 218713). Stable pools were seeded at 40,000 cells/well in a clear bottom 96-well tray, and incubated at 37° C. in 5% CO2 for 18 hrs. Cells were serum-starved in FreeStyle 293 medium (Invitrogen) for 4-6 h, then incubated for 5 min with a dose response of compound, in duplicate. Cells were fixed with 4% paraformaldehyde for 20 min, permeabilized with 0.1% Triton X-100 in PBS (4×5 min washes) and blocked for 1 h in Odyssey Blocking Buffer (LI-COR). All incubations were at room temperature. Cells were incubated for 18 h at 4° C. in Rabbit anti-Phospho-ERK1/2 (Cell Signaling #4377) and Mouse anti-ERK1/2 (Cell Signaling #9107) both diluted 1:800 in Odyssey Blocking Buffer. […] Data was analyzed by non-linear regression using GraphPad Prism to determine the EC50 of binding.

S1P1 W269L = S1P1 W269L (Homo sapiens, UniProt P21453, W269L); test: S1P1 mutagenesis analysis, W269L mutant; assay type: cell-based
Sequence of S1P1 W269L (P21453 whole entry W269L): as the sequence (P21453 whole entry R120A/E121A) above, with A120R, A121E, W269L counted along it
Procedure: as §3, with “Buffer. Plates were washed with 0.1% Tween-20 in PBS and then incubated with Odyssey Blocking Buffer containing IRDye 680-labeled goat anti-rabbit antibody (#926-32221; diluted 1/500) and IRDye 800CW-labeled goat anti-mouse antibody (#926-32210; diluted 1/1000). Plates were washed with 0.1% Tween-20 in PBS, all liquid was removed from the wells and the plates were scanned using a LICOR Odyssey scanner.” for “Buffer.”, “binding. […]” for “binding.”

S1P1 = S1P1 (Homo sapiens, UniProt P21453); test: Phosphorylated-ERK1/2 In Cell Western, wild type S1P1 in CHOK1; assay type: cell-based
Sequence of S1P1 (P21453 whole entry): as the sequence (P21453 whole entry R120A/E121A) above, with A120R, A121E counted along it
Procedure: as §3, with “Buffer. Plates were washed with 0.1% Tween-20 in PBS and then incubated with Odyssey Blocking Buffer containing IRDye 680-labeled goat anti-rabbit antibody (#926-32221; diluted 1/500) and IRDye 800CW-labeled goat anti-mouse antibody (#926-32210; diluted 1/1000). Plates were washed with 0.1% Tween-20 in PBS, all liquid was removed from the wells and the plates were scanned using a LICOR Odyssey scanner.” for “Buffer.”

S1P1 N101A = S1P1 N101A (Homo sapiens, UniProt P21453, N101A); test: Phosphorylated-ERK1/2 In Cell Western, S1P1 mutant N101A; assay type: cell-based
Sequence of S1P1 N101A (P21453 whole entry N101A): as the sequence (P21453 whole entry R120A/E121A) above, with N101A, A120R, A121E counted along it
Procedure: as §1, §2, §3

[1] = test system: CD4 or CD8 positive T cells; conditions: racemic compound 253; data stated as reported by Gonzalez-Cabrera et al. 2008; cited from earlier work
[2] = test system: influenza A virus (A/WSN/33); test: Influenza A H1N1 model in mice; conditions: mouse, in vivo

Sequence of S1P1/EDG1 (P21453 whole entry): as the sequence (P21453 whole entry R120A/E121A) above, with A120R, A121E counted along it

Structure (SMILES)	EC50 (S1P1/EDG1) [nM]	other results
CC(C)Oc1ccc(-c2nc(-c3cccc4c3CC[C@@H]4NS(=O)(=O)CCN3CC(O)C3)no2)cc1C#N [Compound 181]	0.05 to 0.5	
CNCCS(=O)(=O)N[C@@H]1CCc2c(-c3noc(-c4ccc(OC(C)C)c(C#N)c4)n3)cccc21 [Compound 74]	0.05 to 0.5	
CC(C)Oc1ccc(-c2nc(-c3cccc4c3CC[C@@H]4NC(=O)N(C)C)no2)cc1C#N [Compound 120]	0.05 to 0.5	
CCOc1ccc(-c2nc(-c3cccc4c3CC[C@@H]4O)no2)cc1[N+](=O)[O-] [Compound 12]	0.5 to 5	
CC(C)Oc1ccc(-c2nc(-c3cccc4c3CCC4NCCC(=O)O)no2)cc1C#N (racemic) [Compound 38]		effect of S1P1 mutation on binding (S1P1 R120A/E121A): diminishes binding; effect of S1P1 mutation on binding (S1P1 W269L): abolishes binding; S1P1 agonism, phosphorylation of ERK1/2 (S1P1): induce phosphorylation of ERK1/2; effect of S1P1 mutation on binding (S1P1 N101A): no effect on binding
CCOc1ccc(-c2nc(-c3cccc4c3CCC4NCCO)no2)cc1OCC (racemic) [Compound 253, (+/−)-2-((4-(5-(3,4,DIETHOXYPHENYL)-1,2,4-OXADIAZOL-3-YL)-2,3-DIHYDRO-1H-INDEN-1-YL) AMINO)ETHANOL]		Mouse Lymphopenia (AUEC) [1]: 116
CC(C)Oc1ccc(-c2nc(-c3cccc4c3CC[C@H]4N(C)CCO)no2)cc1C#N [Compound 111]	0.5 to 5	
COCCN[C@@H]1CCc2c(-c3noc(-c4ccc(OC(C)C)c(C#N)c4)n3)cccc21 [Compound 88]	0.5 to 5	
CC(C)Oc1ccc(-c2nc(-c3cccc4c3CC[C@H]4NS(=O)(=O)CCN3CCC3)no2)cc1C#N [Compound 168]	0.05 to 0.5	
CC(C)Oc1ccc(-c2nc(-c3cccc4c3CC[C@@H]4N(CCO)S(=O)(=O)c3ccccc3)no2)cc1C#N [Compound 117]	> 5	
CC(C)Oc1ccc(-c2nc(-c3cccc4c3CCC4NC[C@H](C)O)no2)cc1C#N (stereo partly shown) [Compound 43]	0.05 to 0.5	
CC(C)Oc1ccc(-c2nc(-c3cccc4c3CC[C@H]4NCC(=O)N3CCOCC3)no2)cc1C#N [Compound 59]	0.05 to 0.5	
CCOc1ccc(-c2nc(-c3cccc4c3CC[C@H]4O)no2)cc1[N+](=O)[O-] [Compound 11]	0.5 to 5	
CC(C)Oc1ccc(-c2nc(-c3cccc4c3CC[C@H]4NCCO)no2)cc1C#N [Compound 85, (R)-5-(3-(1-(2-hydroxyethylamino)-2,3-dihydro-1H-inden-4-yl)-1,2,4-oxadiazol-5-yl)-2-isopropoxybenzonitrile]		suppression of cellular infiltrate into the lungs [2]: 40%
CC(C)Oc1ccc(-c2nc(-c3cccc4c3CC[C@@H]4NS(=O)(=O)CCN3CCNCC3)no2)cc1C#N [Compound 179]	0.5 to 5	
CC(C)Oc1ccc(-c2nc(-c3cccc4c3CCC4NC[C@H](O)CO)no2)cc1C#N (stereo partly shown) [Compound 41]	0.05 to 0.5	
CC(C)Oc1ccc(-c2nc(-c3cccc4c3CC[C@H]4NC(C)C(=O)N(C)C)no2)cc1C#N (stereo partly shown) [Compound 58]	0.5 to 5	
CC(C)Oc1ccc(-c2nc(-c3cccc4c3CC[C@@H]4NS(=O)(=O)CCN3CCC(O)CC3)no2)cc1C#N [Compound 178]	0.5 to 5	
CC(C)Oc1ccc(-c2nc(-c3cccc4c3CC[C@@H]4N(C)CC(=O)N(C)C)no2)cc1C#N [Compound 115]	0.5 to 5	
CC(C)Oc1ccc(-c2nc(-c3cccc4c3CC[C@@H]4NS(=O)(=O)CCNCCO)no2)cc1C#N [Compound 180]	0.05 to 0.5	
CC(C)Oc1ccc(-c2nc(-c3cccc4c3CC[C@H]4NS(=O)(=O)CCN(C)C)no2)cc1C#N [Compound 77]	0.05 to 0.5	
CC(C)Oc1ccc(-c2nc(-c3cccc4c3CCC4NC[C@@H](C)O)no2)cc1C#N (stereo partly shown) [Compound 42]	0.5 to 5	
CC(C)Oc1ccc(-c2nc(-c3cccc4c3CC[C@@H]4N)no2)cc1C#N [Compound 50, (S)-5-(3-(1-amino-2,3-dihydro-1H-inden-4-yl)-1,2,4-oxadiazol-5-yl)-2-isopropoxy-benzonitrile]		effect of S1P1 mutation on binding (S1P1 R120A/E121A): no influence on the binding; effect of S1P1 mutation on binding (S1P1 W269L): abolishes binding; S1P1 agonism, phosphorylation of ERK1/2 (S1P1): induce phosphorylation of ERK1/2; effect of S1P1 mutation on binding (S1P1 N101A): reduces the binding
CC(C)Oc1ccc(-c2nc(-c3cccc4c3CC[C@H]4NS(C)(=O)=O)no2)cc1C#N [Compound 70]	0.05 to 0.5	
CC(C)Oc1ccc(-c2nc(-c3cccc4c3CC[C@H]4NC(=O)c3ccc(Br)cc3)no2)cc1C#N [Compound 122]	> 5	
